# Molecular target: T1, GLP-1R (Homo sapiens, UniProt P43220)
# T1 construct: host or cells: GLP-1R CRE-bla CHO-K1 cells
# Assay: EC20 GLP-1(9-36) PAM cAMP assay: dose response of compound in the presence of fixed concentration of GLP-1(9-36)
# Type: cell-based
# Conditions: GLP-1R CRE-bla CHO-K1 cells, compound dose response with fixed concentration of GLP-1(9-36), read-out: EC20 GLP-1(9-36) PAM EC50
# Method in brief: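 Positive allosteric modulation read as cAMP accumulation: compound titrations (12 points) combined with an EC20 level of GLP-1(9-36) on CHO-K1 GLP-1R CRE-bla cells, IBMX present, 30 min, 37 °C, pH 7.4 buffer. Luminescence converted to cAMP via standards; non-linear fit gave EC50 and Emax.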
# T1 sequence (P43220 24-463): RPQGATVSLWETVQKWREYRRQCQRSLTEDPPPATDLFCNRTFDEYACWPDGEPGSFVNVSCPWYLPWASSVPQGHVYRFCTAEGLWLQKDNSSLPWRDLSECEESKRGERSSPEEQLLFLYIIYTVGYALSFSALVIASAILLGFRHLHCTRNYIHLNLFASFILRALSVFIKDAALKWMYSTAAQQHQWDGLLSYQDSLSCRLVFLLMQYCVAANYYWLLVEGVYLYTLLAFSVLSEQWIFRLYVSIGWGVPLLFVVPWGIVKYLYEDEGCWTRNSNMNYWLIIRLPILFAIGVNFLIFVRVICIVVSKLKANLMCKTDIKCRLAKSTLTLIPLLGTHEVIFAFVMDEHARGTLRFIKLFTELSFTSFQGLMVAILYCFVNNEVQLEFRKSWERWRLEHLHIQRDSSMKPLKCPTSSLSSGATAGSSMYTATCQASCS
# T1 sequence (P01275 100-127 partner limits assumed): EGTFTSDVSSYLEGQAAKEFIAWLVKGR
row,EC50 [nM],Compound
1,< 800,CCC[C@H]1CC[C@H](C2CCN(c3cnc(-c4ccc(C[C@H](NC(=O)c5ccc(C6CC6)cc5)C(=O)N5CC(C(=O)O)C5)cc4)nc3)CC2)CC1 [Compound 1520]
2,< 800,CC(C)(C)c1ccc(C(=O)N[C@@H](Cc2ccc(-c3ncc(-c4ccc(-c5ccc(F)cc5)cc4F)cn3)cc2)C(=O)N2CC(C(=O)O)C2)s1 [Compound 1213]
3,< 800,CCC[C@H]1CC[C@H](C2CCN(c3cnc(-c4ccc(CC(NC(=O)c5ccc(C(C)(C)C)s5)C(=O)NS(=O)(=O)CC(F)(F)F)cc4)nc3)CC2)CC1 (stereo partly shown) [Compound 1550]
4,800 to 2500,CCCc1ccc(C(=O)N[C@@H](Cc2ccc(-c3ncc(-c4ccc([C@H]5CC[C@H](CC)CC5)cc4)cn3)cc2)C(=O)O)cc1 [Compound 1372]
5,2500 to 5000,C[C@@H](NC(=O)[C@H](Cc1ccc(-c2ncc(/C=C/c3ccc(F)cc3)cn2)cc1)NC(=O)c1ccc(C(C)(C)C)s1)C(=O)O [Compound 1249]
6,< 800,CCC[C@H]1CC[C@H](C2CCN(c3cnc(-c4ccc(C[C@H](NC(=O)c5ccc(C(C)(C)CC)cc5)C(=O)N5CC(C(=O)O)C5)cc4)nc3)CC2)CC1 [Compound 1518]
7,800 to 2500,CCCC1CCC(C2CCN(c3cnc(-c4ccc(C[C@H](NC(=O)c5ccc(C(C)(C)C)s5)C(=O)N5CC(C(=O)O)C5)cc4)nc3)C(=O)C2)CC1 (stereo partly shown) [Compound 1496]
8,800 to 2500,CCCCc1ccc(-c2ccc(-c3cnc(-c4ccc(C[C@H](NC(=O)c5ccc(C(C)(C)C)s5)C(=O)O)cc4)nc3)c(F)c2)cc1 [Compound 1361]
9,< 800,CCC[C@H]1CC[C@H](C2CCN(c3cnc(-c4ccc(C[C@H](NC(=O)c5ccc(C(C)(C)C)s5)C(=O)N5CCC[C@H](C(=O)O)C5)cc4)nc3)CC2)CC1 [Compound 1456]
10,800 to 2500,COc1ccc(C2CCN(c3cnc(-c4ccc(C[C@H](NC(=O)c5ccc(C(C)(C)C)s5)C(=O)N5CC(C(=O)O)C5)cc4)nc3)CC2)cc1 [Compound 1425]
11,800 to 2500,CCCCCc1ccc(-c2ccc(-c3cnc(-c4ccc(C[C@H](NC(=O)c5ccc(C(C)(C)C)s5)C(=O)N[C@H](C)C(=O)O)cc4)nc3)cc2)cc1 [Compound 1308]
12,< 800,CC(C)c1ccc(-c2ccc(-c3cnc(-c4ccc(C[C@H](NC(=O)c5ccc(C(C)(C)C)s5)C(=O)N5CC(C(=O)O)C5)cc4)nc3)cc2)cc1 [Compound 1395]
13,< 800,CCC[C@H]1CC[C@H](c2ccc(-c3cnc(-c4ccc(C[C@H](NC(=O)c5ccc(C(C)(C)C)s5)C(=O)O)cc4)nc3)cc2)CC1 [Compound 1346]
14,< 800,Cc1ccccc1C1CCN(c2cnc(-c3ccc(C[C@H](NC(=O)c4ccc(C(C)(C)C)s4)C(=O)N4CC(C(=O)O)C4)cc3)nc2)CC1 [Compound 1475]

# Same assay, conditions: dose response of compound in presence of fixed concentration of GLP-1(9-36), GLP-1R CRE-bla CHO-K1 cells, read-out: EC20 GLP-1(9-36) PAM EC50
row,Compound,EC50 [nM]
1,CCCCCCCOc1ccc(-c2cnc(-c3ccc(C[C@H](NC(=O)c4ccc(S(C)(=O)=O)cc4)C(=O)N[C@H](C)C(=O)O)cc3)nc2)cc1 [Compound 816],800 to 2500
2,CCCCCCCOc1ccc(-c2cnc(-c3ccc(C[C@H](NC(=O)c4ccc(OCC)cc4)C(=O)N[C@H](C)C(=O)O)cc3)nc2)cc1 [Compound 818],800 to 2500
3,CSc1cccc(-c2cnc(-c3ccc(C[C@H](NC(=O)c4ccc(C(C)(C)C)s4)C(=O)N[C@H](C)C(=O)O)cc3)nc2)c1 [Compound 995],5000 to 10000
4,"CCCCCCCOc1ccc(-c2cnc(-c3ccc(C(NC(=O)c4ccc(C(C)(C)C)s4)C(=O)O)cc3)nc2)cc1 (stereo not shown) [Compound 289, 2-(5-(tert-butyl)thiophene-2-carboxamido)-2-(4-(5-(4-(heptyloxy)phenyl)pyrimidin-2-yl)phenyl)acetic acid]",2500 to 5000
5,CCCCCCCOc1ccc(-c2cnc(-c3ccc(C[C@H](NC(=O)c4ccc(C(C)(C)C)s4)C(=O)N4CCC[C@H]4C(=O)N4CC[C@@H](C(=O)O)C4)cc3)nc2)cc1 [Compound 500],800 to 2500
6,CCCCCCCOc1ccc(-c2cnc(-c3ccc(C[C@H](NC(=O)c4ccc(C(C)(C)C)s4)C(=O)NCC(=O)NCCC(=O)O)cc3)nc2)cc1 [Compound 487],< 800
7,CCCCCCOc1cccc(-c2noc(-c3cnc(-c4ccc(C[C@H](NC(=O)c5ccc(C(C)(C)C)cc5)C(=O)NCCC(=O)O)cc4)nc3)n2)c1 [Compound 760],800 to 2500
8,CCCCCCCOc1ccc(-c2cnc(-c3ccc(C[C@H](NC(=O)c4ccc(C(C)(C)C)s4)C(=O)NCCN)cc3)nc2)cc1 [Compound 384],5000 to 10000
9,CCCc1ccc(-c2cnc(-c3ccc(C[C@H](NC(=O)c4ccc(C(C)(C)C)cc4)C(=O)NCCC(=O)O)cc3)nc2)cc1 [Compound 687],2500 to 5000
10,CCCCCCCOc1ccc(-c2cnc(-c3ccc(C[C@H](NC(=O)c4ccc(C(C)(C)C)cc4)C(=O)NC(C(=O)O)c4cccc(C(F)(F)F)c4)cc3)nc2)cc1 (stereo partly shown) [Compound 545],< 800
11,C[C@@H](NC(=O)[C@H](Cc1ccc(-c2ncc(-c3ccc(C(C)(C)C)cc3)cn2)cc1)NC(=O)c1ccc(C(C)(C)C)cc1)C(=O)O [Compound 720],2500 to 5000
12,CCCCCCCOc1ccc(-c2cnc(-c3ccc(C[C@H](NC(=O)c4ccc(C(C)(C)C)s4)C(=O)NC4CCCC(C(=O)O)C4)cc3)nc2)cc1 (stereo partly shown) [Compound 535],5000 to 10000
13,CCCCCCOc1ccc(-c2cnc(-c3ccc(C[C@H](NC(=O)c4ccc(C(C)(C)C)cc4)C(=O)NCCC(=O)O)cc3)nc2)cc1 [Compound 490],800 to 2500
14,CCCCCCCOc1ccc2nc(-c3ccc(C[C@H](NC(=O)c4ccc(C(C)(C)C)cc4)C(=O)N[C@H](C)C(=O)O)cc3)ncc2c1 [Compound 809],800 to 2500
15,COc1ccccc1-c1ccc(-c2cnc(-c3ccc(C[C@H](NC(=O)c4ccc(C(C)(C)C)s4)C(=O)N[C@H](C)C(=O)O)cc3)nc2)cc1 [Compound 1012],2500 to 5000
16,CCCCCCCOc1ccc(-c2cnc(-c3ccc(C[C@H](NC(=O)c4ccc(C(C)(C)C)s4)C(=O)N4CC(C(=O)O)CCC4C)cc3)nc2)cc1 (stereo partly shown) [Compound 653],< 800
17,CC(C)(C)c1ccc(C(=O)N[C@@H](Cc2ccc(-c3ncc(-c4ccc(C(C)(C)C)cc4)cn3)cc2)C(=O)NCCC(=O)O)cc1 [Compound 675],5000 to 10000
18,CCCOc1ccc(-c2cnc(-c3ccc(C[C@H](NC(=O)c4ccc(C(C)(C)C)s4)C(=O)N4CC(C(=O)O)C4)cc3)nc2)cc1 [Compound 785],2500 to 5000
19,CCCCCCCOc1ccc(-c2cnc(-c3ccc(C[C@H](NC(=O)c4ccc(C(C)(C)C)s4)C(=O)NC(C(=O)O)c4ccccc4C(F)(F)F)cc3)nc2)cc1 (stereo partly shown) [Compound 596],800 to 2500
20,CCCCCCCOc1ccc(-c2cnc(-c3ccc(C[C@H](NC(=O)c4ccc(CC(C)C)cc4)C(=O)N[C@H](C)C(=O)O)cc3)nc2)cc1 [Compound 823],800 to 2500
21,CC(C)CCCOc1ccc(-c2cnc(-c3ccc(C[C@H](NC(=O)c4ccc(C(C)(C)C)cc4)C(=O)N[C@H](C)C(=O)O)cc3)nc2)cc1 [Compound 793],800 to 2500
22,CCCCc1ccc(-c2cnc(-c3ccc(C[C@H](NC(=O)c4ccc(C(C)(C)C)cc4)C(=O)NCCC(=O)O)cc3)nc2)cc1 [Compound 677],2500 to 5000
23,C[C@@H](NC(=O)[C@H](Cc1ccc(-c2ncc(-c3ccc(Oc4ccccc4F)nc3)cn2)cc1)NC(=O)c1ccc(C(C)(C)C)s1)C(=O)O [Compound 1009],2500 to 5000
24,CCCCCCCOc1ccc(-c2cnc(-c3ccc(C[C@H](NC(=O)c4ccc(Cc5ccccc5)cc4)C(=O)N[C@H](C)C(=O)O)cc3)nc2)cc1 [Compound 825],< 800
25,CCCCCCCOc1ccc(-c2cnc(-c3ccc(C[C@H](NC(=O)c4ccc(C(C)(C)C)cc4)C(=O)N4C[C@@H](O)C[C@@H]4C(=O)O)cc3)nc2)cc1 [Compound 586],< 800

# Second part, the molecule after the results:
row,EC50 [nM],Compound
1,< 800,C[C@@H](NC(=O)[C@H](Cc1ccc(-c2ncc(-c3ccc(-c4ccccc4F)cc3)cn2)cc1)NC(=O)c1ccc(C(C)(C)C)s1)C(=O)O [Compound 1133]
2,< 800,"CC[C@H]1CC[C@H](c2ccc(-c3cnc(-c4ccc(C[C@H](NC(=O)c5ccc(C(C)(C)C)s5)C(=O)N[C@H](C)C(=O)O)cc4)nc3)cc2)CC1 [Compound 1056, ((S)-2-(5-(tert-butyl)thiophene-2-carboxamido)-3-(4-(5-(4-((1r,4r)-4-ethylcyclohexyl)phenyl)pyrimidin-2-yl)phenyl)propanoyl)-D-alanine]"
3,5000 to 10000,C[C@@H](NC(=O)[C@H](Cc1ccc(-c2ncc(-c3ccc(-c4ccc(F)cc4F)cc3)cn2)cc1)NC(=O)c1ccc(C(C)(C)C)s1)C(=O)O [Compound 1149]
4,< 800,CC(C)(C)c1ccc(C(=O)N[C@@H](Cc2ccc(-c3ncc(-c4ccc(-c5ccc(C#N)cc5)cc4F)cn3)cc2)C(=O)N2CC(C(=O)O)C2)s1 [Compound 1201]
5,800 to 2500,CC(C)(C)c1ccc(C(=O)N[C@@H](Cc2ccc(-c3ncc(-c4ccc([C@H]5CC[C@H](C(C)(C)C)CC5)cc4)cn3)cc2)C(=O)N2CC(C(=O)O)C2)s1 [Compound 1181]
6,< 800,CC[C@H]1CC[C@H](c2ccc(-c3cnc(-c4ccc(C[C@H](NC(=O)c5cc6cc(OC)ccc6[nH]5)C(=O)N5CC(C(=O)O)C5)cc4)nc3)cc2)CC1 [Compound 1166]
7,2500 to 5000,CCCCCCCOc1ccc(-c2cnc(-c3ccc(C[C@H](NC(=O)c4ccc(CC)cn4)C(=O)N4CC[C@H](C(=O)O)C4)cc3)nc2)cc1 [Compound 1098]
8,5000 to 10000,C[C@@H](NC(=O)[C@H](Cc1ccc(-c2ncc(-c3cc(O)cc(OC(F)(F)F)c3)cn2)cc1)NC(=O)c1ccc(C(C)(C)C)s1)C(=O)O [Compound 1020]
9,800 to 2500,CCc1ccc(/C=C/c2cnc(-c3ccc(C[C@H](NC(=O)c4ccc(C(C)(C)C)s4)C(=O)N4CC[C@H](C(=O)O)C4)cc3)nc2)cc1 [Compound 1086]
10,< 800,Cc1cc(-c2cnc(-c3ccc(C[C@H](NC(=O)c4ccc(C(C)(C)C)s4)C(=O)N4CC[C@H](C(=O)O)C4)cc3)nc2)ccc1OC(C)C [Compound 1087]

# From patent publication US10034886B2, “GLP-1 receptor modulators” (Celgene International II SÀRL, priority 2014, dated 2018)
